From ChEMBL document CHEMBL2331532, “(+)-Laburnamine, a natural selective ligand and partial agonist for the α4β2 nicotinic receptor subtype” (J Nat Prod, 2013) come the findings set out here.

The source made the active and inactive calls. The calls are words filed in the database; no cut-off is given here.

The target in test [1] is Neuronal acetylcholine receptor subunit alpha-7 (Rattus norvegicus, UniProt Q05941). Put plainly: Displacement of [125I]alpha-bungarotoxin from alpha7 nAChR from rat hippocampus. The class given is tissue-based.
The target of test [2] is T1, Neuronal acetylcholine receptor; alpha4/beta2 (Rattus norvegicus, UniProt P09483+P12390). The experiment in a line: Displacement of [3H]epibatidine from alpha4beta2 nAChR in rat cortex. In general terms: Loss of bound radioactivity is the signal in a displacement assay; it reports binding, not function.
Test [3] addresses T2, Neuronal acetylcholine receptor; alpha4/beta2 (Rattus norvegicus) (UniProt P09483+P12390). The experiment in a line: Displacement of [3H]epibatidine from alpha4beta2 nAChR in rat cortex up to 100 uM.
For a further test, the species on record is Rattus norvegicus. The experiment in a line: Selectivity ratio of Ki for alpha7 nAChR in rat hippocampus to Ki for alpha4beta2 nAChR in rat cortex. The class given is tissue-based.
Test [4] is described as follows: Selectivity ratio of Ki for human alpha3beta4 nAChR to Ki for alpha4beta2 nAChR in rat cortex.
Test [5] concerns the target T3, Acetylcholine receptor; alpha1/beta1/delta/gamma (Homo sapiens, UniProt P02708+P07510+P11230+Q07001). Put plainly: Displacement of [125I]alpha-bungarotoxin from human alpha2betagammadelta nAChR at 10 uM. In kind it is protein-complex assay.
The target in test [6] is T2, Neuronal acetylcholine receptor; alpha4/beta2 (Rattus norvegicus). Put plainly: (§1) Antagonist activity at alpha4beta2 nAChR in rat brain striatal slices assessed as inhibition of nicotine-induced release of [3H]dopamine release. In kind it is tissue-based. Conditions: concentration not given here.
Test [7] addresses T1, Neuronal acetylcholine receptor; alpha4/beta2. The test is described as §1. In kind it is tissue-based.
The target of test [8] is T2, Neuronal acetylcholine receptor; alpha4/beta2 (Rattus norvegicus). Put plainly: Agonist activity at alpha4beta2 nAChR in rat brain striatal slices assessed as release of [3H]dopamine release relative to nicotine. The class given is tissue-based.
The target in test [9] is T1, Neuronal acetylcholine receptor; alpha4/beta2. Put plainly: Agonist activity at alpha4beta2 nAChR in rat brain striatal slices assessed as release of [3H]dopamine release. The class given is tissue-based.
Test [10] deals with T3, Acetylcholine receptor; alpha1/beta1/delta/gamma. The experiment in a line: Displacement of [125I]alpha-bungarotoxin from human alpha2betagammadelta nAChR. The class given is protein-complex assay.
Test [11] addresses Neuronal acetylcholine receptor; alpha3/beta4 (Homo sapiens, UniProt P30926+P32297). The experiment in a line: Displacement of [3H]epibatidine from human alpha3beta4 nAChR expressed in HEK cells. In kind it is cell-based, HEK293.
The target of test [12] is Neuronal acetylcholine receptor subunit alpha-7 (Homo sapiens, UniProt P36544). Put plainly: Displacement of [3H]methyllycaconitine from alpha7 nAChR (unknown origin).
Test [13] has as its target Neuronal acetylcholine receptor; alpha4/beta2 (Homo sapiens, UniProt P17787+P43681). Put plainly: Displacement of [3H]epibatidine from alpha4beta2 nAChR (unknown origin). In kind it is protein-complex assay.

Neuronal acetylcholine receptor subunit alpha-7 (Rattus norvegicus, UniProt Q05941), sequence (Q05941 whole entry): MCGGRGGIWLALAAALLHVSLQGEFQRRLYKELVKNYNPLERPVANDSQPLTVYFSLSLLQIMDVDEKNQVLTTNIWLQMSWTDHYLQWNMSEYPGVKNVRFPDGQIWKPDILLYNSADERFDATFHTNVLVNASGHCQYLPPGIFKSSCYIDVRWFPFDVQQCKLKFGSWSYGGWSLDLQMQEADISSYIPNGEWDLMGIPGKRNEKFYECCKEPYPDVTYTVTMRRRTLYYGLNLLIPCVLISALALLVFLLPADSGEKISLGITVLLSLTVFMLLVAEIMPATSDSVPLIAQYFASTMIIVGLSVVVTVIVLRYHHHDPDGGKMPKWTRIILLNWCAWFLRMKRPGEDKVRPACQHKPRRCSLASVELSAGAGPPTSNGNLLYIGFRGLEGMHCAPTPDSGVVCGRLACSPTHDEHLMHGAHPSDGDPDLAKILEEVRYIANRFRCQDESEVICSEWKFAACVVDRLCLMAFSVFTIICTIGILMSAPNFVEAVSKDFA
T1 sequence (P09483 whole entry): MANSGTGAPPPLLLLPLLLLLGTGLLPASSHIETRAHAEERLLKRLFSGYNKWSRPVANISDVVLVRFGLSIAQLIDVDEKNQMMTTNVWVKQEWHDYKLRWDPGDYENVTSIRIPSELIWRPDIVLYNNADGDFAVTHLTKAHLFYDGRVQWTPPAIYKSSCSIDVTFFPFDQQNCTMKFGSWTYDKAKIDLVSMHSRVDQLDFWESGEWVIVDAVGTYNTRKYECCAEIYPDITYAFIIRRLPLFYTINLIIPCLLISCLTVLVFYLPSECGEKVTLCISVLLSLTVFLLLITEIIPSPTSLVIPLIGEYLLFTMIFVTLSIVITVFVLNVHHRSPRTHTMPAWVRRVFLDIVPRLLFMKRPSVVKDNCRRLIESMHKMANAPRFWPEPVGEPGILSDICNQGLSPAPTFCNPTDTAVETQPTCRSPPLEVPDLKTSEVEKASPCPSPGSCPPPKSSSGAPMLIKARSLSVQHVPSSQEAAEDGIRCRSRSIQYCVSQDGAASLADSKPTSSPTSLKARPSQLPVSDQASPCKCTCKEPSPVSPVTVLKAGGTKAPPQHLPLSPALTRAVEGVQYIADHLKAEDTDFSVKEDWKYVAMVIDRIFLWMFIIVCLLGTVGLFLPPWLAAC
T1 sequence (P12390 whole entry): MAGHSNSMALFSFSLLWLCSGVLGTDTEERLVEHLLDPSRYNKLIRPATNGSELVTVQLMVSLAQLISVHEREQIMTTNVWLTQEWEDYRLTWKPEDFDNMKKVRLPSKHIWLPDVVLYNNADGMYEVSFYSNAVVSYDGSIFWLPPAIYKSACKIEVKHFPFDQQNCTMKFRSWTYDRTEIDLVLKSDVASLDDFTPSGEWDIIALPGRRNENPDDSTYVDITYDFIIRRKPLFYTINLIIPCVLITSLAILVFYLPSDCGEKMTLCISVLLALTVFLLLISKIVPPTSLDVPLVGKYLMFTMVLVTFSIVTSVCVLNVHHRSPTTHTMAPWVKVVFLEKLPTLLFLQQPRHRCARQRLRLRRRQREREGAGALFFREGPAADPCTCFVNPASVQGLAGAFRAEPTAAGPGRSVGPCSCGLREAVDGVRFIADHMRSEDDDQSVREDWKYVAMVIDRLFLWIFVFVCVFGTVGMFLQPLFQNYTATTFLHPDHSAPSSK
Neuronal acetylcholine receptor; alpha3/beta4, sequence (P30926 whole entry): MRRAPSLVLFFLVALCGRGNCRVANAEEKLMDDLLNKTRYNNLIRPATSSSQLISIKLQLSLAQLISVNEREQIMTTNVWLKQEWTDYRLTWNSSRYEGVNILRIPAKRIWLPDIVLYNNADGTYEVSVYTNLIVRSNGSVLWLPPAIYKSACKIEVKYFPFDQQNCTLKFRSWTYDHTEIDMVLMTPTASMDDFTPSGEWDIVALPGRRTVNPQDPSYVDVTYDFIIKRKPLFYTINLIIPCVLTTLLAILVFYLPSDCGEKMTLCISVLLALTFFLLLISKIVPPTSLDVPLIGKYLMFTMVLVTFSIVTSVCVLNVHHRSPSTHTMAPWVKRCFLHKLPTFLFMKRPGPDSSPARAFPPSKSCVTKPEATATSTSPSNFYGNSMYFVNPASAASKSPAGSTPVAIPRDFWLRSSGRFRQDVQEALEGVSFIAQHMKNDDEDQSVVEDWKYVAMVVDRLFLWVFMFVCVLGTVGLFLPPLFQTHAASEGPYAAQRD
Neuronal acetylcholine receptor; alpha3/beta4, sequence (P32297 whole entry): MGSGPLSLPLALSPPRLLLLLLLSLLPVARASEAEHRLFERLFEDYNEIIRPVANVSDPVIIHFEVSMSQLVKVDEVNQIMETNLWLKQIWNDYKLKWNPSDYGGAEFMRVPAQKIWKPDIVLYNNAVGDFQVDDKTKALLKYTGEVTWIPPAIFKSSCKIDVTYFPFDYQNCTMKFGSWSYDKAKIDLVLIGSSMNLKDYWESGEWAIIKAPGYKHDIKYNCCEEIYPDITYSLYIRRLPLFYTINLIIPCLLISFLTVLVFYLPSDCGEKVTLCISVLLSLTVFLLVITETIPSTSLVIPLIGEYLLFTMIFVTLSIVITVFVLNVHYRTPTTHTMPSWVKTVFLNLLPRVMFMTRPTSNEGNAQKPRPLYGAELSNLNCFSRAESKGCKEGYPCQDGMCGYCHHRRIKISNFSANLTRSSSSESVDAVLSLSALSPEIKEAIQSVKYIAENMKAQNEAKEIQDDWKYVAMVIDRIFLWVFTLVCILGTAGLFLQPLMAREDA
Neuronal acetylcholine receptor; alpha4/beta2 (Homo sapiens, UniProt P17787+P43681), sequence (P17787 whole entry): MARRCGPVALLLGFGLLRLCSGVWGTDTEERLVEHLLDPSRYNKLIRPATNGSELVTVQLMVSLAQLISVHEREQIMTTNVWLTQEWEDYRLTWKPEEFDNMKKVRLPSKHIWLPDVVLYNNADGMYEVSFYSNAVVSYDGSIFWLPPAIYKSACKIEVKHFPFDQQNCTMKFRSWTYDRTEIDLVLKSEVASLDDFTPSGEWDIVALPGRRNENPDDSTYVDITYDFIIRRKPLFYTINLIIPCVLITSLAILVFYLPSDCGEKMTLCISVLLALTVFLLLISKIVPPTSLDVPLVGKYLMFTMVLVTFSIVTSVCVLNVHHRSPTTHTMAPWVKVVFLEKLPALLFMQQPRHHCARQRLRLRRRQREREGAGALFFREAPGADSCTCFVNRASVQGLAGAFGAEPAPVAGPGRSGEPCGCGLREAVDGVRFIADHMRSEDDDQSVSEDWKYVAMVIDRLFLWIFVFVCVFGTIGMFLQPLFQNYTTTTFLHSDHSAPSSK
Neuronal acetylcholine receptor; alpha4/beta2 (Homo sapiens, UniProt P17787+P43681), sequence (P43681 whole entry): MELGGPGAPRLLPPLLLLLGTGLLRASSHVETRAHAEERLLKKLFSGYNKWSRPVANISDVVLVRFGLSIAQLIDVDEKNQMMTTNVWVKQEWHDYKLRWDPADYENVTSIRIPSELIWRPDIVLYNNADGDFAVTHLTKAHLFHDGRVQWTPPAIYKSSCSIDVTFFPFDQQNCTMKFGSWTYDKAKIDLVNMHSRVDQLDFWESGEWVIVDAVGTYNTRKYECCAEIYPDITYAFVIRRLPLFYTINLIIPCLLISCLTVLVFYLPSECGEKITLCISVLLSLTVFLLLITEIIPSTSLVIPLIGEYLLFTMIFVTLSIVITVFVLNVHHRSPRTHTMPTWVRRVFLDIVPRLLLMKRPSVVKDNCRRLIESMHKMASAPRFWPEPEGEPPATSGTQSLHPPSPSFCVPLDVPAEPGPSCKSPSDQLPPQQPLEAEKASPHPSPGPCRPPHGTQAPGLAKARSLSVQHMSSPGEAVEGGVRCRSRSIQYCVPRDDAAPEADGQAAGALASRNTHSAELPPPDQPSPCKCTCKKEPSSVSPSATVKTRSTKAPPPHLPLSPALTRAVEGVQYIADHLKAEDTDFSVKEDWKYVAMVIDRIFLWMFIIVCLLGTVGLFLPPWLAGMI
Neuronal acetylcholine receptor subunit alpha-7 (Homo sapiens, UniProt P36544), sequence (P36544 whole entry): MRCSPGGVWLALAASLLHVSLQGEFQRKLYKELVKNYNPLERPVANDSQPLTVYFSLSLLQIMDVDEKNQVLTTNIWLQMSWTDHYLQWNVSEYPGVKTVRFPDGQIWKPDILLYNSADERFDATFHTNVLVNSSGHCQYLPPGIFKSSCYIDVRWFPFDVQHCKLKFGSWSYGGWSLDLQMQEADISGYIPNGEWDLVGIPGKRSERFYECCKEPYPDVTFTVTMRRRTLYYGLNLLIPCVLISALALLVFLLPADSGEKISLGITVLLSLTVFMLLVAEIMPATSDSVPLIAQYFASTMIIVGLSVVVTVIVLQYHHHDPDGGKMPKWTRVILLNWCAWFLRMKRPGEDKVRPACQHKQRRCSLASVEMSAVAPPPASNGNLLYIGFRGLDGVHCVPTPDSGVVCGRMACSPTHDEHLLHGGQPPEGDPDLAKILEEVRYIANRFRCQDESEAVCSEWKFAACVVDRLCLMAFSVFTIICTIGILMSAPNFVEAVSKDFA

Usually Ki stands for a dissociation constant, usually derived from enzyme kinetics or from competition with a known ligand. Consider `CC(C)C(=O)N[C@@H]1CCN2CCCC[C@@H]12` (racemic), for which the Ki was 29 µM in test [1] and 100 µM in test [2].

On to `CCC(=O)N[C@H]1CCCN2CCCC[C@@H]12` (racemic), for which, in test [2], the Ki was 4.44 µM.

Take `CC(=O)N[C@H]1CCCN2CCCC[C@@H]12`: the result in test [3] was inactive.

With `CC(C)C(=O)N[C@H]1CCN2CCCC[C@@H]12` (racemic), the Ki was found to be 26 µM in [1] and 283 µM in [2].

Take `CC(C)C(=O)N[C@H]1CCCN2CCCC[C@@H]12` (racemic): in test [2], the Ki turned out to be 6.81 µM.

One may read the inhibition as the percentage by which the read-out fell short of the control. Usually IC50 stands for the concentration that inhibits the measured activity by half. The EC50 is the concentration at which the effect is half-maximal. In the case of `CCC(C)C(=O)N[C@H]1CCN2CCC[C@H]12` (stereo not given in full), the Ratio Ki in the test listed under Rattus norvegicus was found to be 136; in test [4], 126. Further, the Activity in test [5] is 5%. Further, the inhibition in test [6] amounted to 46%. In addition, the half-maximal inhibitory concentration (IC50) in test [7] was 1.6 µM. In addition, the Efficacy in test [8] was found to be 43%. Further, the EC50 in test [9] was found to be 5.8 µM. In addition, the Ki in test [10] was above 10 µM; in [1], 40 µM; in [11], 37 µM; in [2] it was 0.29 µM.

In the case of `O=c1cccc2n1C[C@@H]1CNC[C@H]2C1` [CYTISINICLINE], the Ki in [1] turned out to be 0.23 µM; in test [11], 0.28 µM; in [2] it was 0.0021 µM.

In [2], `CC(C)C(=O)N[C@H]1CCCN2CCCC[C@H]12` (racemic) showed a Ki of 6.05 µM.

`CCC(=O)N[C@H]1CCCN2CCCC[C@H]12` (racemic) had a Ki in test [2] of 6.15 µM.

As for `CC(=O)C1=CC[C@@H]2CC[C@H]1N2`, the values for the Ki in test [12] and in [13] were 100 µM and 0.094 µM, respectively.
